Reference: paper PMC3543412, “Fatty Acid Solubilizer from the Oral Disk of the Blowfly” (PLoS ONE, 2013)

Assays:
[1] = biological target: T1, PregOBP56a (Phormia regina odorant-binding protein 56a) (Phormia regina, UniProt L8B8J6); test: fluorescence competitive binding assay (1-NPN displacement), pH […]
T1 construct: recombinant mature PregOBP56a (117 amino acid residues)
T1 sequence (L8B8J6 19-135): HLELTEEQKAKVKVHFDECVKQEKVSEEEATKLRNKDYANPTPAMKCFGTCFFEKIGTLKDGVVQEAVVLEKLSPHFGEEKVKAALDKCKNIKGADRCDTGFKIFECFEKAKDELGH

[2] = biological target: T1, PregOBP56a (Phormia regina odorant-binding protein 56a); test: direct fluorescence titration of the reporter probe, pH […]

SMILES	Kd [1]	Kd [2]
CCCCCCCCCCCCCCCCCC(=O)O [stearic acid]	350 nM	
CCCCCCCC/C=C\CCCCCCCC(=O)O [oleic acid]	710 nM	
c1ccc(Nc2cccc3ccccc23)cc1 [1-NPN, N-phenyl-1-naphthylamine]		11.4 µM
CCCCC/C=C\C/C=C\CCCCCCCC(=O)O [linoleic acid]	510 nM	
CCCCCCCCCCCCCCCC(=O)O [palmitic acid]	280 nM	
